# Data taken from patent US20260345568A1, “INHIBITING MONOACYLGLYCEROL LIPASE (MAGL)” (PSY THERAPEUTICS, INC., priority 2023, published 2026).
# Target: T1, human MAGL (Homo sapiens, UniProt Q99685)
# T1 construct: recombinant MAGL enzyme (aa 2-303 RBC, internal preparation)
# T1 sequence (Q99685 2-303): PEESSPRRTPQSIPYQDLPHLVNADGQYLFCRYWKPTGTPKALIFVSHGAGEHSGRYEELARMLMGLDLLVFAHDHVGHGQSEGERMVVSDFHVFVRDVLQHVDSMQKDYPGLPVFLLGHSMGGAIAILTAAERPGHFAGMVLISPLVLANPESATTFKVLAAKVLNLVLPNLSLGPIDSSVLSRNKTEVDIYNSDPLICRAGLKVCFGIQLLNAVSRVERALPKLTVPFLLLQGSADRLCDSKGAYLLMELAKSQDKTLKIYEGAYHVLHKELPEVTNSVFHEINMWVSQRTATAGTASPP
# Assay: MAGL inhibition potency, 4-nitrophenyl acetate (4NPA) hydrolysis, absorbance 405 nm (Example A)
# Type: biochemical
# Conditions: Method 2: Cayman Chemical MAGL enzyme, 10 nM; 4NPA substrate; read-out: Potency
# Source text: The potency of certain compounds for inhibiting MAGL were obtained using the following assays.
# The monoacylglycerol lipase inhibitor screening assay kit from Cayman Chemical was used to measure the MAGL potency for the compounds in Tables A-1, A-2, A-3.
# Cayman's Monoacylglycerol Lipase Inhibitor Screening Assay provides a method for screening human MAGL inhibitors. MAGL hydrolyzes 4-nitrophenylacetate resulting in a yellow product, 4-nitrophenol, with an absorbance of 405-412 nm.
# MAGL Inhibition was measured by the following assay. Monoacylglycerol Lipase (MAGL) inhibition was measured using recombinant MAGL enzyme (aa 2-303 RBC, internal preparation) and the substrate 4-Nitrophenyl acetate (4NPA) (Sigma-Aldrich, N8130). Hydrolysis of the substrate in the presence of the enzyme was measured by absorbance at 405 nm. 10 μL of assay buffer (10 mM Tris pH 7.5, 1 mM EDTA, 0.9% DMSO) was added to a black 384-well non-binding plate with clear bottom (Greiner, 781906) for each reaction. Compounds were dispensed using an acoustic liquid handler (Echo, Beckman) at 45 nL (0.1% DMSO). Test compounds and control for MAGL inhibitor JZL-184 (Caymen Chemical, 13158) were tested in 10-concentration IC50 mode with 3-fold serial dilution at a starting concentration of […]. DMSO control wells were included for reference. A 10.8 nM (1.8×) MAGL mix in assay buffer was prepared, with 25 μL added to each reaction well, for a final assay concentration of […]. No enzyme wells received 25 μL of buffer. Plate was incubated at room temperature for 30 minutes. 35 mM solution of 4NPA in methanol was prepared daily A 4.5×4NPA substrate solution was prepared in assay buffer and 10 μL was added to each reaction well, for a final assay concentration of 0.25 mM. Plate was spun for 1 minute at 1000 rpm before measuring absorbance using a CLARIOstar plate reader (BMG Labtech). A kinetic reading at 405 nm was done every minute for 30 minutes. Data was analyzed using the linear slope of the reaction progress curve and the average of the no-enzyme wells (background) was subtracted from the data. The background-subtracted slope data was converted to % activity using the average of wells with enzyme and DMSO vehicle. IC50s were calculated using GraphPad software (Sigmoidal dose response, variable slope equation).
# Table 8 provides potency measurements of MAGL inhibition measured using the Potency Assay of Example A above, with the following modifications described in Table C.
# The number after each letter for potency measurement value indicates the Method from Table C that was used to obtain that measurement value (e.g. “A(1)” indicates an IC50 measurement of <50 nM obtained from the Method 1 of Example A in Table C).
row,SMILES,IC50 [µM]
1,"Cc1cc(C2CC3(C2)CN([C@H]2CCOc4ccccc42)C3)n(-c2ccccc2C)n1 [Compound C4, reference compound]",> 10

# Same assay, conditions: Method 12: Reaction Biology MAGL enzyme, 15 nM; 4NPA substrate; read-out: MAGL Potency (Detection Method)
row,SMILES,IC50 [µM]
1,"O=C(c1cc(O)ccc1F)N1CC2(CC(n3ncc(C(F)(F)F)c3-c3cccnc3)C2)C1 [Compound 1, (2-fluoro-5-hydroxyphenyl){6-[5-(3-pyridyl)-4-(trifluoromethyl)-1-pyrazolyl]-2-aza-2-spiro[3.3]heptyl}methanone]",0.15 to 0.5
2,"O=C(c1cc(O)ccc1F)N1CC2(CC(n3cc(C(F)(F)F)c(-c4cccnc4)n3)C2)C1 [Compound 2, (2-fluoro-5-hydroxyphenyl){6-[3-(3-pyridyl)-4-(trifluoromethyl)-1-pyrazolyl]-2-aza-2-spiro[3.3]heptyl}methanone]",< 0.05
3,"O=C(c1cc(O)ccc1F)N1CC2(CC(n3nc(C(F)(F)F)cc3-c3cccnc3)C2)C1 [Compound 3, (2-fluoro-5-hydroxyphenyl){6-[5-(3-pyridyl)-3-(trifluoromethyl)-1-pyrazolyl]-2-aza-2-spiro[3.3]heptyl}methanone]",0.05 to 0.15
4,"O=C(c1cc(O)ccc1F)N1CC2(CC(n3nc(-c4cccnc4)cc3C(F)(F)F)C2)C1 [Compound 4, (2-fluoro-5-hydroxyphenyl){6-[3-(3-pyridyl)-5-(trifluoromethyl)-1-pyrazolyl]-2-aza-2-spiro[3.3]heptyl}methanone]",< 0.05
5,"O=C(c1cc(O)ccc1F)N1CC2(CC(n3nc(-c4ccccn4)cc3C(F)(F)F)C2)C1 [Compound 6, (2-fluoro-5-hydroxyphenyl){6-[3-(2-pyridyl)-5-(trifluoromethyl)-1-pyrazolyl]-2-aza-2-spiro[3.3]heptyl}methanone]",0.15 to 0.5
6,"O=C(c1cc(O)ccc1F)N1CC2(CC(n3nc(C(F)(F)F)cc3-c3ccncc3)C2)C1 [Compound 7, (2-fluoro-5-hydroxyphenyl){6-[5-(4-pyridyl)-3-(trifluoromethyl)-1-pyrazolyl]-2-aza-2-spiro[3.3]heptyl}methanone]",0.15 to 0.5
7,"O=C(c1cc(O)ccc1F)N1CC2(CC(n3nc(-c4ccncc4)cc3C(F)(F)F)C2)C1 [Compound 8, (2-fluoro-5-hydroxyphenyl){6-[3-(4-pyridyl)-5-(trifluoromethyl)-1-pyrazolyl]-2-aza-2-spiro[3.3]heptyl}methanone]",< 0.05
8,"O=C(c1cc(O)ccc1F)N1CC2(CC(n3nc(C(F)(F)F)cc3-c3ccc(=O)[nH]c3)C2)C1 [Compound 9, 5-(1-(2-(2-fluoro-5-hydroxybenzoyl)-2-azaspiro [3.3]heptan-6-yl)-3-(trifluoromethyl)-1H-pyrazol-5-yl) pyridin-2(1H)-one]",0.15 to 0.5
9,"O=C(c1cc(O)ccc1F)N1CC2(CC(n3nc(C(F)(F)F)cc3-c3ccc[nH]c3=O)C2)C1 [Compound 11, 3-(1-(2-(2-fluoro-5-hydroxybenzoyl)-2-azaspiro [3.3]heptan-6-yl)-3-(trifluoromethyl)-1H-pyrazol-5-yl) pyridin-2(1H)-one]",0.15 to 0.5
10,O=C(c1cc(O)ccc1F)N1CC2(CC(n3nc(C(F)(F)F)cc3-c3cncc(F)c3)C2)C1 [Compound 13],0.15 to 0.5
11,"O=C(c1cc(O)ccc1F)N1CC2(CC(n3nc(-c4cncc(F)c4)cc3C(F)(F)F)C2)C1 [Compound 14, (2-fluoro-5-hydroxyphenyl){6-[3-(5-fluoro-3-pyridyl)-5-(trifluoromethyl)-1-pyrazolyl]-2-aza-2-spiro[3.3]heptyl}methanone]",0.05 to 0.15
12,COc1ncccc1-c1cc(C(F)(F)F)nn1C1CC2(C1)CN(C(=O)c1cc(O)ccc1F)C2 [Compound 16],0.05 to 0.15
13,"COc1ccc(-c2cc(C(F)(F)F)nn2C2CC3(C2)CN(C(=O)c2cc(O)ccc2F)C3)cn1 [Compound 18, (2-fluoro-5-hydroxyphenyl) (6-(5-(6-methoxypyridin-3-yl)-3-(trifluoromethyl)-1H-pyrazol-1-yl)-2-azaspiro [3.3]heptan-2-yl) methanone]",0.15 to 0.5
14,"COc1ncccc1-c1c(C(F)(F)F)cnn1C1CC2(C1)CN(C(=O)c1cc(O)ccc1F)C2 [Compound 19, (2-fluoro-5-hydroxyphenyl){6-[5-(2-methoxy-3-pyridyl)-4-(trifluoromethyl)-1-pyrazolyl]-2-aza-2-spiro[3.3]heptyl}methanone]",< 0.05
15,COc1ncccc1-c1nn(C2CC3(C2)CN(C(=O)c2cc(O)ccc2F)C3)cc1C(F)(F)F [Compound 20],0.15 to 0.5
16,O=C(c1cc(O)ccc1F)N1CC2(CC(n3ncc(C(F)(F)F)c3-c3cccnc3F)C2)C1 [Compound 21],0.15 to 0.5
17,"O=C(c1cc(O)ccc1F)N1CC2(CC(n3cc(C(F)(F)F)c(-c4cccnc4F)n3)C2)C1 [Compound 22, (2-fluoro-5-hydroxyphenyl){6-[3-(2-fluoro-3-pyridyl)-4-(trifluoromethyl)-1-pyrazolyl]-2-aza-2-spiro[3.3]heptyl}methanone]",< 0.05
18,COc1ccc(-c2c(C(F)(F)F)cnn2C2CC3(C2)CN(C(=O)c2cc(O)ccc2F)C3)cn1 [Compound 27],0.05 to 0.15
19,"COc1ccc(-c2nn(C3CC4(C3)CN(C(=O)c3cc(O)ccc3F)C4)cc2C(F)(F)F)cn1 [Compound 28, (2-fluoro-5-hydroxyphenyl){6-[3-(6-methoxy-3-pyridyl)-4-(trifluoromethyl)-1-pyrazolyl]-2-aza-2-spiro[3.3]heptyl}methanone]",< 0.05
20,"O=C(c1cc(O)ccc1F)N1CC2(CC(n3ncc(C(F)(F)F)c3-c3ccc[nH]c3=O)C2)C1 [Compound 29, 3-(1-{2-(2-fluoro-5-hydroxybenzoyl)-2-aza-6-spiro[3.3]heptyl}-4-(trifluoromethyl)-5-pyrazolyl)-2(1H)-pyridinone]",1 to 5.1
21,"O=C(c1cc(O)ccc1F)N1CC2(CC(n3cc(C(F)(F)F)c(-c4ccc[nH]c4=O)n3)C2)C1 [Compound 30, 3-(1-{2-(2-fluoro-5-hydroxybenzoyl)-2-aza-6-spiro[3.3]heptyl}-4-(trifluoromethyl)-3-pyrazolyl)-2(1H)-pyridinone]",0.05 to 0.15
22,"O=C(c1cc(O)ccc1F)N1CC2(CC(n3ncc(C(F)(F)F)c3-c3ccc(=O)[nH]c3)C2)C1 [Compound 31, 5-(1-{2-(2-fluoro-5-hydroxybenzoyl)-2-aza-6-spiro[3.3]heptyl}-4-(trifluoromethyl)-5-pyrazolyl)-2(1H)-pyridinone]",1 to 5.1
23,O=C(c1cc(O)ccc1F)N1CC2(CC(n3cc(C(F)(F)F)c(-c4ccc(=O)[nH]c4)n3)C2)C1 [Compound 32],0.05 to 0.15
24,"O=C(c1ccc(F)cc1OC1CC1)N1CC2(CC(N3C=C(c4ccccc4F)CC3=O)C2)C1 [Compound 33, 1-{2-(2-cyclopropoxy-4-fluorobenzoyl)-2-aza-6-spiro[3.3]heptyl}-3-(o-fluorophenyl)-2-pyrrolin-5-one]",1 to 5.1
25,"O=C1CCC(c2c(C(F)(F)F)cnn2C2CC3(C2)CN(C(=O)c2cc(O)ccc2F)C3)CN1 (centres unmarked) [Compound 41, 5-(1-{2-(2-fluoro-5-hydroxybenzoyl)-2-aza-6-spiro[3.3]heptyl}-4-(trifluoromethyl)-5-pyrazolyl)-2-piperidinone]",0.15 to 0.5
